Data reported in patent US9723840B2 (SYNGENTA PARTICIPATIONS AG, priority 2013, dated 2017).

Tests used:
Type in all cases: in vivo
[1] = system: Zea mays; assay: Post-emergence herbicidal activity, ZEAMX; set-up: key: 5=total damage to plant; 0=no damage to plant; conditions: 1000 g/Ha, post-emergence spray (8 days cultivation), evaluated after 13 days, scale 0-5
Protocol: (§1) Seeds of a variety of test species were sown in standard soil in pots. After 8 days cultivation (post-emergence) under controlled conditions in a glasshouse (at 24/16° C., day/night; 14 hours light; 65% humidity), the plants were sprayed with an aqueous spray solution derived from the formulation of the technical active ingredient in acetone/water (50:50) solution containing 0.5% Tween 20 (polyoxyethelyene sorbitan monolaurate, CAS RN 9005-64-5). The test plants were then grown in a glasshouse under controlled conditions (at 24/16° C., day/night; 14 hours light; 65% humidity) and watered twice daily. After 13 days, the test was evaluated (5=total damage to plant; 0=no damage to plant).

[2] = system: Zea mays; assay: Pre-emergence herbicidal activity, ZEAMX; conditions: 1000 g/Ha, pre-emergence spray, evaluated after 13 days, scale 0-5
Protocol: as §1, with “After” for “After 8 days”, “for one day (pre-emergence)” for “(post-emergence)”

[3] = system: Echinochloa crus-galli; assay: Pre-emergence herbicidal activity, ECHCG; set-up: key: 5=total damage to plant; 0=no damage to plant; conditions: 1000 g/Ha, pre-emergence spray, evaluated after 13 days, scale 0-5
Protocol: as §1, with “After” for “After 8 days”, “for one day (pre-emergence)” for “(post-emergence)”

[4] = system: Amaranthus retroflexus; assay: Pre-emergence herbicidal activity, AMARE; set-up: key: 5=total damage to plant; 0=no damage to plant; conditions: 1000 g/Ha, pre-emergence spray, evaluated after 13 days, scale 0-5
Protocol: as §1, with “After” for “After 8 days”, “for one day (pre-emergence)” for “(post-emergence)”

[5] = system: Abutilon theophrasti; assay: Pre-emergence herbicidal activity, ABUTH; set-up: key: 5=total damage to plant; 0=no damage to plant; conditions: 1000 g/Ha, pre-emergence spray, evaluated after 13 days, scale 0-5
Protocol: as §1, with “After” for “After 8 days”, “for one day (pre-emergence)” for “(post-emergence)”

[6] = system: Abutilon theophrasti; assay: Post-emergence herbicidal activity, ABUTH; set-up: key: 5=total damage to plant; 0=no damage to plant; conditions: 1000 g/Ha, post-emergence spray (8 days cultivation), evaluated after 13 days, scale 0-5
Protocol: as §1

[7] = system: Setaria faberi; assay: Pre-emergence herbicidal activity, SETFA; set-up: key: 5=total damage to plant; 0=no damage to plant; conditions: 1000 g/Ha, pre-emergence spray, evaluated after 13 days, scale 0-5
Protocol: as §1, with “After” for “After 8 days”, “for one day (pre-emergence)” for “(post-emergence)”

[8] = system: Amaranthus retroflexus; assay: Post-emergence herbicidal activity, AMARE; set-up: key: 5=total damage to plant; 0=no damage to plant; conditions: 1000 g/Ha, post-emergence spray (8 days cultivation), evaluated after 13 days, scale 0-5
Protocol: as §1

[9] = system: Setaria faberi; assay: Post-emergence herbicidal activity, SETFA; set-up: key: 5=total damage to plant; 0=no damage to plant; conditions: 1000 g/Ha, post-emergence spray (8 days cultivation), evaluated after 13 days, scale 0-5
Protocol: as §1

[10] = system: Echinochloa crus-galli; assay: Post-emergence herbicidal activity, ECHCG; set-up: key: 5=total damage to plant; 0=no damage to plant; conditions: 1000 g/Ha, post-emergence spray (8 days cultivation), evaluated after 13 days, scale 0-5
Protocol: as §1

[11] = system: Alopecurus myosuroides; assay: Post-emergence herbicidal activity, ALOMY; set-up: key: 5=total damage to plant; 0=no damage to plant; conditions: 1000 g/Ha, post-emergence spray (8 days cultivation), evaluated after 13 days, scale 0-5
Protocol: as §1

[12] = system: Alopecurus myosuroides; assay: Pre-emergence herbicidal activity, ALOMY; conditions: 1000 g/Ha, pre-emergence spray, evaluated after 13 days, scale 0-5
Protocol: as §1, with “After” for “After 8 days”, “for one day (pre-emergence)” for “(post-emergence)”

CN1C(=O)N(c2cc(C(F)(F)F)c(Cl)nn2)C(O)C1O (centres unmarked) [Example A22]
ZEAMX damage score, application post-emergence [1]: 3 | ZEAMX damage score, application pre-emergence [2]: 1 | ECHCG damage score, application pre-emergence [3]: 2 | AMARE damage score, application pre-emergence [4]: 5 | ABUTH damage score, application pre-emergence [5]: 5 | ABUTH damage score, application post-emergence [6]: 5 | SETFA damage score, application pre-emergence [7]: 4 | AMARE damage score, application post-emergence [8]: 5 | SETFA damage score, application post-emergence [9]: 5 | ECHCG damage score, application post-emergence [10]: 5

CC1C(O)N(c2cc(C(C)(C)F)c(Cl)nn2)C(=O)N1C (centres unmarked) [Example A2, 1-[6-chloro-5-(1-fluoro-1-methyl-ethyl)pyridazin-3-yl]-5-hydroxy-3,4-dimethyl-imidazolidin-2-one]
ZEAMX damage score, application post-emergence [1]: 5 | ZEAMX damage score, application pre-emergence [2]: 3 | ALOMY damage score, application post-emergence [11]: 4 | ALOMY damage score, application pre-emergence [12]: 4 | ECHCG damage score, application pre-emergence [3]: 4 | AMARE damage score, application pre-emergence [4]: 5 | ABUTH damage score, application pre-emergence [5]: 5 | ABUTH damage score, application post-emergence [6]: 5 | SETFA damage score, application pre-emergence [7]: 5 | AMARE damage score, application post-emergence [8]: 5 | SETFA damage score, application post-emergence [9]: 5 | ECHCG damage score, application post-emergence [10]: 5

CN1CC(O)N(c2cc(C(C)(F)F)cnn2)C1=O (centres unmarked) [Example A20]
ZEAMX damage score, application post-emergence [1]: 5 | ZEAMX damage score, application pre-emergence [2]: 3 | ECHCG damage score, application pre-emergence [3]: 5 | AMARE damage score, application pre-emergence [4]: 5 | ABUTH damage score, application pre-emergence [5]: 5 | ABUTH damage score, application post-emergence [6]: 5 | SETFA damage score, application pre-emergence [7]: 5 | AMARE damage score, application post-emergence [8]: 5 | SETFA damage score, application post-emergence [9]: 5 | ECHCG damage score, application post-emergence [10]: 5

CN1CC(O)N(c2ccc(C(=O)NC(C)(C)C)nn2)C1=O (centres unmarked) [Example A25]
ZEAMX damage score, application post-emergence [1]: 3 | ZEAMX damage score, application pre-emergence [2]: 2 | ECHCG damage score, application pre-emergence [3]: 5 | AMARE damage score, application pre-emergence [4]: 5 | ABUTH damage score, application pre-emergence [5]: 5 | ABUTH damage score, application post-emergence [6]: 5 | SETFA damage score, application pre-emergence [7]: 5 | AMARE damage score, application post-emergence [8]: 5 | SETFA damage score, application post-emergence [9]: 5 | ECHCG damage score, application post-emergence [10]: 5

CC1C(O)N(c2ccc(C(=O)NC(C)(C)C)nn2)C(=O)N1C (centres unmarked) [Example A15]
ZEAMX damage score, application post-emergence [1]: 5 | ZEAMX damage score, application pre-emergence [2]: 3 | ALOMY damage score, application post-emergence [11]: 5 | ALOMY damage score, application pre-emergence [12]: 4 | ECHCG damage score, application pre-emergence [3]: 5 | AMARE damage score, application pre-emergence [4]: 5 | ABUTH damage score, application pre-emergence [5]: 5 | ABUTH damage score, application post-emergence [6]: 5 | SETFA damage score, application pre-emergence [7]: 4 | AMARE damage score, application post-emergence [8]: 5 | SETFA damage score, application post-emergence [9]: 5 | ECHCG damage score, application post-emergence [10]: 5

CN1CC(O)N(c2cc(C(C)(C)F)cnn2)C1=O (centres unmarked) [Example A18]
ZEAMX damage score, application post-emergence [1]: 4 | ZEAMX damage score, application pre-emergence [2]: 2 | ECHCG damage score, application pre-emergence [3]: 5 | AMARE damage score, application pre-emergence [4]: 5 | ABUTH damage score, application pre-emergence [5]: 5 | ABUTH damage score, application post-emergence [6]: 5 | SETFA damage score, application pre-emergence [7]: 4 | AMARE damage score, application post-emergence [8]: 5 | SETFA damage score, application post-emergence [9]: 5 | ECHCG damage score, application post-emergence [10]: 5

CN1CC(O)N(c2cc(C(C)(C)F)c(-c3ccccc3)nn2)C1=O (centres unmarked) [Example A4]
ZEAMX damage score, application post-emergence [1]: 5 | ALOMY damage score, application post-emergence [11]: 5 | ALOMY damage score, application pre-emergence [12]: 4 | ECHCG damage score, application pre-emergence [3]: 5 | AMARE damage score, application pre-emergence [4]: 5 | ABUTH damage score, application post-emergence [6]: 5 | SETFA damage score, application pre-emergence [7]: 5 | AMARE damage score, application post-emergence [8]: 5 | SETFA damage score, application post-emergence [9]: 5 | ECHCG damage score, application post-emergence [10]: 5
